Test results published in PubChem BioAssay AID1963980 (Molecular Pharmacology Branch, DTP, NCI, 2024).

Tested on: 475296-252-R-J1-PDC spheroid viability
Test: Anticancer human tumor 475296-252-R-J1-PDC patient-derived rectal carcinoma cell line growth inhibition [PI3K]
Conditions: spheroids with HUVEC and MSC; for viability, T/C: stronger effect = lower value
How it was run: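 Viability of mixed-cell spheroids was determined after exposure to pairwise combinations, one partner being inavolisib, alpelisib, duvelisib or copanlisib. Highest tested concentration matched clinical Cmax where known and 10 microM where not, descending in half-log steps.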

[1] = curve of first compound, second compound 0.0316 µM
[2] = curve of first compound, second compound 0.1 µM
[3] = curve of first compound, second compound 0.316 µM
[4] = curve of first compound, second compound 1 µM
[5] = second compound 0.0316 µM, first compound 0.0316 µM
[6] = second compound 0.0316 µM, first compound 0.1 µM
[7] = second compound 0.0316 µM, first compound 0.316 µM
[8] = second compound 0.0316 µM, first compound 1 µM
[9] = second compound 0.0316 µM, first compound 3.16 µM
[10] = second compound 0.0316 µM, first compound 10 µM
[11] = second compound 0.1 µM, first compound 0.0316 µM
[12] = second compound 0.1 µM, first compound 0.1 µM
[13] = second compound 0.1 µM, first compound 0.316 µM
[14] = second compound 0.1 µM, first compound 1 µM
[15] = second compound 0.1 µM, first compound 3.16 µM
[16] = second compound 0.1 µM, first compound 10 µM
[17] = second compound 0.316 µM, first compound 0.0316 µM
[18] = second compound 0.316 µM, first compound 0.1 µM
[19] = second compound 0.316 µM, first compound 0.316 µM
[20] = second compound 0.316 µM, first compound 1 µM
[21] = second compound 0.316 µM, first compound 3.16 µM
[22] = second compound 0.316 µM, first compound 10 µM
[23] = second compound 1 µM, first compound 0.0316 µM
[24] = second compound 1 µM, first compound 0.1 µM
[25] = second compound 1 µM, first compound 0.316 µM
[26] = second compound 1 µM, first compound 1 µM
[27] = second compound 1 µM, first compound 3.16 µM
[28] = second compound 1 µM, first compound 10 µM
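Note: spheroids exposed to agents for seven days before readout.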

CC1(C)CCC(CN2CCN(c3ccc(C(=O)NS(=O)(=O)c4ccc(NCC5CCOCC5)c([N+](=O)[O-])c4)c(Oc4cnc5[nH]ccc5c4)c3)CC2)=C(c2ccc(Cl)cc2)C1 + CC(Nc1ncnc2nc[nH]c12)c1cc2cccc(Cl)c2c(=O)n1-c1ccccc1
IC50 [1]: > 10 µM | IC50 [2]: > 10 µM | IC50 [3]: > 10 µM | IC50 [4]: > 10 µM | IC50 (curve of first compound, second compound 3.16 µM): > 10 µM | IC50 (curve of first compound, second compound 10 µM): > 10 µM | viability, T/C [5]: 102% | viability, T/C [6]: 99.1% | viability, T/C [7]: 91.2% | viability, T/C [8]: 104% | viability, T/C [9]: 107% | viability, T/C [10]: 84.2% | viability, T/C [11]: 107% | viability, T/C [12]: 93.8% | viability, T/C [13]: 98.8% | viability, T/C [14]: 99.7% | viability, T/C [15]: 106% | viability, T/C [16]: 99% | viability, T/C [17]: 120% | viability, T/C [18]: 95.4% | viability, T/C [19]: 97.9% | viability, T/C [20]: 95% | viability, T/C [21]: 86.4% | viability, T/C [22]: 94.3% | viability, T/C [23]: 86.6% | viability, T/C [24]: 104% | viability, T/C [25]: 98.9% | viability, T/C [26]: 101% | viability, T/C [27]: 91.8% | viability, T/C [28]: 91.7% | viability, T/C (second compound 3.16 µM, first compound 0.0316 µM): 93.2% | viability, T/C (second compound 3.16 µM, first compound 0.1 µM): 99.4% | viability, T/C (second compound 3.16 µM, first compound 0.316 µM): 95.1% | viability, T/C (second compound 3.16 µM, first compound 1 µM): 87.6% | viability, T/C (second compound 3.16 µM, first compound 3.16 µM): 96.9% | viability, T/C (second compound 3.16 µM, first compound 10 µM): 95.6% | viability, T/C (second compound 10 µM, first compound 0.0316 µM): 78.5% | viability, T/C (second compound 10 µM, first compound 0.1 µM): 91.7% | viability, T/C (second compound 10 µM, first compound 0.316 µM): 92% | viability, T/C (second compound 10 µM, first compound 1 µM): 88.9% | viability, T/C (second compound 10 µM, first compound 3.16 µM): 90.6% | viability, T/C (second compound 10 µM, first compound 10 µM): 81.3%

C=CC(=O)N1CCN(c2nc(=O)n(-c3c(C)ccnc3C(C)C)c3nc(-c4c(O)cccc4F)c(F)cc23)C(C)C1 (stereo not given)
viability, T/C (compound 0.1 µM): 98.7% [middle of 4 runs] | viability, T/C (compound 0.316 µM): 97% [middle of 4 runs] | viability, T/C (compound 1 µM): 105% [middle of 4 runs] | viability, T/C (compound 3.16 µM): 110% [middle of 4 runs] | viability, T/C (compound 10 µM): 110% [middle of 4 runs] | IC50 (curve of compound): > 10 µM

C#Cc1c(F)ccc2cc(O)cc(-c3ncc4c(N5CC6CCC(C5)N6)nc(OCC56CCCN5CC(F)C6)nc4c3F)c12 (stereo not given) + CC(Nc1ccc2c(c1)OCCn1cc(N3C(=O)OCC3C(F)F)nc1-2)C(N)=O
IC50 (curve of first compound, second compound 0.00316 µM): > 10 µM | IC50 (curve of first compound, second compound 0.01 µM): > 10 µM | IC50 [1]: > 10 µM | IC50 [2]: 9.51 µM | IC50 [3]: 1.75 µM | IC50 [4]: 0.828 µM | viability, T/C (second compound 0.00316 µM, first compound 0.0316 µM): 104% | viability, T/C (second compound 0.00316 µM, first compound 0.1 µM): 78.2% | viability, T/C (second compound 0.00316 µM, first compound 0.316 µM): 87.1% | viability, T/C (second compound 0.00316 µM, first compound 1 µM): 74.6% | viability, T/C (second compound 0.00316 µM, first compound 3.16 µM): 67.5% | viability, T/C (second compound 0.00316 µM, first compound 10 µM): 67% | viability, T/C (second compound 0.01 µM, first compound 0.0316 µM): 98.6% | viability, T/C (second compound 0.01 µM, first compound 0.1 µM): 83% | viability, T/C (second compound 0.01 µM, first compound 0.316 µM): 85.3% | viability, T/C (second compound 0.01 µM, first compound 1 µM): 73.1% | viability, T/C (second compound 0.01 µM, first compound 3.16 µM): 75.1% | viability, T/C (second compound 0.01 µM, first compound 10 µM): 59.1% | viability, T/C [5]: 94.2% | viability, T/C [6]: 87.2% | viability, T/C [7]: 77.6% | viability, T/C [8]: 73.8% | viability, T/C [9]: 73.3% | viability, T/C [10]: 59.2% | viability, T/C [11]: 89% | viability, T/C [12]: 94.6% | viability, T/C [13]: 74.3% | viability, T/C [14]: 72.1% | viability, T/C [15]: 61.1% | viability, T/C [16]: 49% | viability, T/C [17]: 78.2% | viability, T/C [18]: 87.7% | viability, T/C [19]: 86.6% | viability, T/C [20]: 61.3% | viability, T/C [21]: 36.5% | viability, T/C [22]: 18.1% | viability, T/C [23]: 92.1% | viability, T/C [24]: 75.1% | viability, T/C [25]: 67.4% | viability, T/C [26]: 52.8% | viability, T/C [27]: 16.9% | viability, T/C [28]: 9.3%
